Results: the supplement of paper PMC10307832

Assays:
Assay in all cases: relative viability (nuclei count vs DMSO), 5 days (fraction); higher = more cells survive
HCC-44 = test system: HCC-44
In short: (§1)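 Five library-drug doses in √10 steps were combined with a fixed anchor-drug dose, or a single drug was given alone, by pin tool to lung cancer cell lines in 1536-well plates the day after seeding. Nuclei were stained and counted after 5 days. Relative viability is the nuclei count in treated wells over that in vehicle wells, taken as the median of duplicate plates.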

NCI-H358 = test system: NCI-H358
In short: as §1

NCI-H1975 = test system: NCI-H1975
In short: as §1

NCI-H1437 = test system: NCI-H1437
In short: as §1

NCI-H596 = test system: NCI-H596
In short: as §1

LK-2 = test system: LK-2
In short: as §1

201T = test system: 201T
In short: as §1

NCI-H1792 = test system: NCI-H1792
In short: as §1

SW 900 = test system: SW 900
In short: as §1

EKVX = test system: EKVX
In short: as §1

NCI-H838 = test system: NCI-H838
In short: as §1

BEN = test system: BEN
In short: as §1

HCC-15 = test system: HCC-15
In short: as §1

NCI-H441 = test system: NCI-H441
In short: as §1

A-427 = test system: A-427
In short: as §1

NCI-H23 = test system: NCI-H23
In short: as §1

HARA = test system: HARA
In short: as §1

NCI-H1666 = test system: NCI-H1666
In short: as §1

SK-MES-1 = test system: SK-MES-1
In short: as §1

COR-L 105 = test system: COR-L 105
In short: as §1

HCC-827 = test system: HCC-827
In short: as §1

NCI-H650 = test system: NCI-H650
In short: as §1

COR-L23 = test system: COR-L23
In short: as §1

NC(=O)Nc1cc(-c2cccc(F)c2)sc1C(=O)N[C@H]1CCCNC1 [AZD7762] + CCNC(=O)c1noc(-c2cc(C(C)C)c(O)cc2O)c1-c1ccc(CN2CCOCC2)cc1 [Luminespib] (partner 0.01 µM)
relative viability (HCC-44; first compound 0.01 µM): 1.14 | relative viability (HCC-44; first compound 0.03162 µM): 0.997 | relative viability (HCC-44; first compound 0.1 µM): 0.918 | relative viability (HCC-44; first compound 0.3162 µM): 0.96 | relative viability (HCC-44; first compound 1 µM): 0.423 | relative viability (NCI-H358; first compound 0.01 µM): 0.275 | relative viability (NCI-H358; first compound 0.03162 µM): 0.292 | relative viability (NCI-H358; first compound 0.1 µM): 0.307 | relative viability (NCI-H358; first compound 0.3162 µM): 0.545 | relative viability (NCI-H358; first compound 1 µM): 0.142 | relative viability (NCI-H1975; first compound 0.01 µM): 0.21 | relative viability (NCI-H1975; first compound 0.03162 µM): 0.201 | relative viability (NCI-H1975; first compound 0.1 µM): 0.0969 | relative viability (NCI-H1975; first compound 0.3162 µM): 0.173 | relative viability (NCI-H1975; first compound 1 µM): 0.127 | relative viability (NCI-H1437; first compound 0.01 µM): 1.17 | relative viability (NCI-H1437; first compound 0.03162 µM): 1.18 | relative viability (NCI-H1437; first compound 0.1 µM): 1.2 | relative viability (NCI-H1437; first compound 0.3162 µM): 1.13 | relative viability (NCI-H1437; first compound 1 µM): 0.79 | relative viability (NCI-H596; first compound 0.01 µM): 0.985 | relative viability (NCI-H596; first compound 0.03162 µM): 1.02 | relative viability (NCI-H596; first compound 0.1 µM): 0.999 | relative viability (NCI-H596; first compound 0.3162 µM): 1.07 | relative viability (NCI-H596; first compound 1 µM): 1.03 | relative viability (LK-2; first compound 0.01 µM): 0.198 | relative viability (LK-2; first compound 0.03162 µM): 0.155 | relative viability (LK-2; first compound 0.1 µM): 0.215 | relative viability (LK-2; first compound 0.3162 µM): 0.164 | relative viability (LK-2; first compound 1 µM): 0.167 | relative viability (201T; first compound 0.01 µM): 1.11 | relative viability (201T; first compound 0.03162 µM): 1.07 | relative viability (201T; first compound 0.1 µM): 1.06 | relative viability (201T; first compound 0.3162 µM): 1.14 | relative viability (201T; first compound 1 µM): 0.913 | relative viability (NCI-H1792; first compound 0.01 µM): 0.586 | relative viability (NCI-H1792; first compound 0.03162 µM): 0.472 | relative viability (NCI-H1792; first compound 0.1 µM): 0.392 | relative viability (NCI-H1792; first compound 0.3162 µM): 0.484 | relative viability (NCI-H1792; first compound 1 µM): 0.481 | relative viability (SW 900; first compound 0.01 µM): 0.182 | relative viability (SW 900; first compound 0.03162 µM): 0.18 | relative viability (SW 900; first compound 0.1 µM): 0.201 | relative viability (SW 900; first compound 0.3162 µM): 0.159 | relative viability (SW 900; first compound 1 µM): 0.146 | relative viability (EKVX; first compound 0.01 µM): 0.827 | relative viability (EKVX; first compound 0.03162 µM): 0.88 | relative viability (EKVX; first compound 0.1 µM): 0.826 | relative viability (EKVX; first compound 0.3162 µM): 0.82 | relative viability (EKVX; first compound 1 µM): 0.65 | relative viability (NCI-H838; first compound 0.01 µM): 0.277 | relative viability (NCI-H838; first compound 0.03162 µM): 0.336 | relative viability (NCI-H838; first compound 0.1 µM): 0.199 | relative viability (NCI-H838; first compound 0.3162 µM): 0.157 | relative viability (NCI-H838; first compound 1 µM): 0.174 | relative viability (BEN; first compound 0.01 µM): 0.16 | relative viability (BEN; first compound 0.03162 µM): 0.665 | relative viability (BEN; first compound 0.1 µM): 0.188 | relative viability (BEN; first compound 0.3162 µM): 0.43 | relative viability (BEN; first compound 1 µM): 0.533 | relative viability (HCC-15; first compound 0.01 µM): 0.309 | relative viability (HCC-15; first compound 0.03162 µM): 0.304 | relative viability (HCC-15; first compound 0.1 µM): 0.234 | relative viability (HCC-15; first compound 0.3162 µM): 0.163 | relative viability (HCC-15; first compound 1 µM): 0.315 | relative viability (NCI-H441; first compound 0.01 µM): 0.402 | relative viability (NCI-H441; first compound 0.03162 µM): 0.489 | relative viability (NCI-H441; first compound 0.1 µM): 0.285 | relative viability (NCI-H441; first compound 0.3162 µM): 0.436 | relative viability (NCI-H441; first compound 1 µM): 0.212 | relative viability (A-427; first compound 0.01 µM): 1.23 | relative viability (A-427; first compound 0.03162 µM): 0.967 | relative viability (A-427; first compound 0.1 µM): 0.815 | relative viability (A-427; first compound 0.3162 µM): 0.58 | relative viability (A-427; first compound 1 µM): 0.322 | relative viability (NCI-H23; first compound 0.01 µM): 0.226 | relative viability (NCI-H23; first compound 0.03162 µM): 0.189 | relative viability (NCI-H23; first compound 0.1 µM): 0.194 | relative viability (NCI-H23; first compound 0.3162 µM): 0.206 | relative viability (NCI-H23; first compound 1 µM): 0.194 | relative viability (HARA; first compound 0.01 µM): 1.02 | relative viability (HARA; first compound 0.03162 µM): 0.71 | relative viability (HARA; first compound 0.1 µM): 0.604 | relative viability (HARA; first compound 0.3162 µM): 0.471 | relative viability (HARA; first compound 1 µM): 0.12 | relative viability (NCI-H1666; first compound 0.01 µM): 1.11 | relative viability (NCI-H1666; first compound 0.03162 µM): 1.07 | relative viability (NCI-H1666; first compound 0.1 µM): 1.18 | relative viability (NCI-H1666; first compound 0.3162 µM): 1.03 | relative viability (NCI-H1666; first compound 1 µM): 0.97 | relative viability (SK-MES-1; first compound 0.01 µM): 1.08 | relative viability (SK-MES-1; first compound 0.03162 µM): 0.715 | relative viability (SK-MES-1; first compound 0.1 µM): 0.38 | relative viability (SK-MES-1; first compound 0.3162 µM): 0.19 | relative viability (SK-MES-1; first compound 1 µM): 0.175 | relative viability (COR-L 105; first compound 0.01 µM): 0.743 | relative viability (COR-L 105; first compound 0.03162 µM): 0.585 | relative viability (COR-L 105; first compound 0.1 µM): 0.696 | relative viability (COR-L 105; first compound 0.3162 µM): 0.648 | relative viability (COR-L 105; first compound 1 µM): 0.401 | relative viability (HCC-827; first compound 0.01 µM): 0.598 | relative viability (HCC-827; first compound 0.03162 µM): 0.677 | relative viability (HCC-827; first compound 0.1 µM): 0.604 | relative viability (HCC-827; first compound 0.3162 µM): 0.459 | relative viability (HCC-827; first compound 1 µM): 0.213 | relative viability (NCI-H650; first compound 0.01 µM): 0.801 | relative viability (NCI-H650; first compound 0.03162 µM): 0.728 | relative viability (NCI-H650; first compound 0.1 µM): 0.763 | relative viability (NCI-H650; first compound 0.3162 µM): 0.641 | relative viability (NCI-H650; first compound 1 µM): 0.458 | relative viability (COR-L23; first compound 0.01 µM): 0.687 | relative viability (COR-L23; first compound 0.03162 µM): 0.653 | relative viability (COR-L23; first compound 0.1 µM): 0.568 | relative viability (COR-L23; first compound 0.3162 µM): 0.216 | relative viability (COR-L23; first compound 1 µM): 0.117
